Assay results reported in US6525070B2, “Bipiperidine derivatives as modulators of CCR3 activity and as H1 antagonists” (AstraZeneca AB, priority 2000, dated 2003).

First: O=S(=O)(c1ccc(-c2ccccn2)s1)N1CCC(N2CCC(Oc3ccc(Cl)c(Cl)c3)CC2)CC1 [Compound 280 of Table I, 4-(3,4-dichloro-phenoxy)-1′-(5-pyridin-2-yl-thiophene-2-sulfonyl)-[1,4′]bipiperidinyl]
Second: O=S(=O)(c1ccc(-c2ccccn2)s1)N1CCC(N2CCC(Oc3ccc(F)c(F)c3)CC2)CC1 [Compound 3 of Table II, 4-(3,4-difluoro-phenoxy)-1′-(5-pyridin-2-yl-thiophene-2-sulfonyl)-[1,4′]bipiperidinyl]
The melting point of the first is higher: 149 to 150 °C for the first, 126 to 127 °C for the second.

First: O=C(Nc1ccccc1)N1CCC(N2CCC(Oc3ccc(Cl)c(Cl)c3)CC2)CC1 [Compound 309 of Table IV, 4-(3,4-dichloro-phenoxy)-[1,4′]bipiperidinyl-1′-carboxylic acid phenylamide]
Second: CS(=O)(=O)c1cccc(NC(=O)N2CCC(N3CCC(Oc4ccc(Cl)c(Cl)c4)CC3)CC2)c1 [Compound 54 of Table IV, 4-(3,4-dichloro-phenoxy)-[1,4′]bipiperidinyl-1′-carboxylic acid (3-methanesulfonyl-phenyl)-amide]
The melting point of the first is higher: 111 to 112 °C for the first, 73 to 75 °C for the second.

First: CC(=O)O.COc1cc(C(=O)N2CCC(N3CCC(Oc4ccc(Cl)c(Cl)c4)CC3)CC2)ccc1N
Second: CC(=O)O.CS(=O)(=O)c1cccc(C(=O)N2CCC(N3CCC(Oc4ccc(Cl)c(Cl)c4)CC3)CC2)c1
The melting point of the first is higher: 181 to 182 °C for the first, 111 to 112 °C for the second.

First: CS(=O)(=O)n1cc(C(=O)N2CCC(N3CCC(Oc4ccc(Cl)c(Cl)c4)CC3)CC2)c2ccccc21.Cl
Second: CS(=O)(=O)c1ccccc1C(=O)N1CCC(N2CCC(Oc3ccc(Cl)c(Cl)c3)CC2)CC1 [Compound 293 of Table I, [4-(3,4-dichloro-phenoxy)-[1,4′]bipiperidinyl-1′-yl]-(2-methanesulfonyl-phenyl)-methanone]
The melting point of the first is higher: 104 to 105 °C for the first, 78 to 80 °C for the second.

First: CS(=O)(=O)c1cccc(C(=O)N2CCC(N3CCC(Oc4ccc(C(F)(F)F)cc4C#N)CC3)CC2)c1.O=C(O)C(F)(F)F
Second: Cc1cccc(OC2CCN(C3CCN(C(=O)c4cccc(S(C)(=O)=O)c4)CC3)CC2)n1.O=C(O)C(F)(F)F
The melting point of the first is higher: 140 to 142 °C for the first, 94 to 95 °C for the second.

Compared with `O=C(C(CN1CCNCC1)c1ccccc1)N1CCC(N2CCC(Oc3ccc(Cl)c(Cl)c3)CC2)CC1` (centres unmarked) [Compound 595 of Table I, 1-[4-(3,4-dichloro-phenoxy)-[1,4′]bipiperidinyl-1′-yl]-2-phenyl-3-piperazin-1-yl-propan-1-one], `CS(=O)(=O)Nc1ccccc1C(=O)N1CCC(N2CCC(Oc3ccc(Cl)c(Cl)c3)CC2)CC1` [Compound 587 of Table I, N-{2-[4-(3,4-dichloro-phenoxy)-[1,4′]bipiperidinyl-1′-carbonyl]-phenyl}-methanesulfonamide] is higher in melting point: 76 to 77 °C for the first, 219 to 220 °C for the second.

First: CS(=O)(=O)c1ccc(C(=O)N2CCC(N3CCC(Oc4ccc(Cl)c(Cl)c4)CC3)CC2)s1 [Compound 332 of Table I, [4-(3,4-dichloro-phenoxy)-[1,4′]bipiperidinyl-1′-yl]-(2-methanesulfonyl-thiophen-5-yl)-methanone]
Second: CS(=O)(=O)Nc1cccc(C(=O)N2CCC(N3CCC(Oc4ccc(Cl)c(Cl)c4)CC3)CC2)c1 [Compound 583 of Table I, N-{3-[4-(3,4-dichloro-phenoxy)-[1,4′]bipiperidinyl-1′-carbonyl]-phenyl}-methanesulfonamide]
The melting point of the first is lower: 82 to 83 °C for the first, 150 to 152 °C for the second.

Compared with `CCn1cc(C(=O)N2CCC(N3CCC(Oc4ccc(Cl)c(Cl)c4)CC3)CC2)c(=O)c2ccc(C)nc21` [Compound 534 of Table I, 3-[4-(3,4-dichloro-phenoxy)-[1,4′]bipiperidinyl-1′-carbonyl]-1-ethyl-7-methyl-1H-[1,8]naphthyridin-4-one], `Cc1cc(Cl)ccc1OC1CCN(C2CCN(C(=O)c3cccc(S(C)(=O)=O)c3)CC2)CC1` [Compound 1 of Table IV, [4-(4-chloro-2-methyl-phenoxy)-[1,4′]bipiperidinyl-1′-yl]-(3-methanesulfonyl-phenyl)-methanone] is lower in melting point: 189 to 190 °C for the first, 64 to 65 °C for the second.

With `COc1cc(C(=O)N2CCC(N3CCC(Oc4ccc(Cl)cc4C)CC3)CC2)ccc1N.O=C(O)C(F)(F)F.O=C(O)C(F)(F)F` the melting point was 110 to 111 °C.
